Measured values taken from patent US20230391760A1, “HETEROCYCLIC GLP-1 AGONISTS” (Gasherbrum Bio, Inc., priority 2020, published 2023).

target: GLP-1 Receptor (Homo sapiens, UniProt P43220); experiment: GLP-1R agonist cAMP stimulation assay (HEK293/GLP1R/CRE-LUC cells, cAMP dynamic 2 Kit); format: cell-based; conditions: HEK293/CRE-Luc cell line stably expressing the GLP-1 Receptor, 30 min at 37° C.
In short: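 cAMP measured by HTRF competition (d2-labelled cAMP with cryptate antibody, 1 h, room temperature, protected from light). Before that, GLP1R/CRE-Luc HEK293 cells (1000/well) were exposed for 30 min at 37 °C to half-log compound dilutions in DPBS containing IBMX 0.5 mM and BSA 0.1%.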

Chain of GLP-1 Receptor (P43220 24-463, species assumed): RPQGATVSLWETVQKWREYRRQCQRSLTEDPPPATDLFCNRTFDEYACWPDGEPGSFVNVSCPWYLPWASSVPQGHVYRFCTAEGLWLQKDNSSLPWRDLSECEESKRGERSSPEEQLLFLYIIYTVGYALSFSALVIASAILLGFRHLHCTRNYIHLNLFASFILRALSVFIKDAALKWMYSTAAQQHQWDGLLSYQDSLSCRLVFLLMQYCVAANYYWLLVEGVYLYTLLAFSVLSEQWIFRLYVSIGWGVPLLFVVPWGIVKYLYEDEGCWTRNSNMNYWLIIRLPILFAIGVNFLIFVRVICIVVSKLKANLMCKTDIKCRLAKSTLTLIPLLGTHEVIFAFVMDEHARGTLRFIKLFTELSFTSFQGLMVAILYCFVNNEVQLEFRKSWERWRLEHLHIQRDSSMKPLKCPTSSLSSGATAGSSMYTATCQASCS

EC50 [nM] | Structure (SMILES)
0.031 | CC1(c2ccc(C#N)cc2)Oc2cccc(C3CCN(Cc4nc5cc(-c6nnc(C(F)(F)F)[nH]6)ccc5n4C[C@@H]4CCO4)CC3)c2O1 (stereo partly drawn) [Compound 260a, 4-(2-methyl-4-{1-[(1-{[(2S)-oxetan-2-yl]methyl}-5-[5-(trifluoromethyl)-4H-1,2,4-triazol-3-yl]-1H-1,3-benzodiazol-2-yl)methyl]piperidin-4-yl}-2H-1,3-benzodioxol-2-yl)benzonitrile]
2 | Cc1nnc(-c2cnc3c(c2)nc(CN2CCC(c4cccc5c4OC(C)(c4ccc(Cl)cn4)O5)CC2)n3C[C@@H]2CCO2)[nH]1 (stereo partly drawn) [Compound 269a, 5-chloro-2-[2-methyl-4-(1-{[6-(5-methyl-4H-1,2,4-triazol-3-yl)-3-{[(2S)-oxetan-2-yl]methyl}-3H-imidazo[4,5-b]pyridin-2-yl]methyl}piperidin-4-yl)-2H-1,3-benzodioxol-2-yl]pyridine]
0.36 | CO[C@H](C)Cn1c(CN2CCC(c3cccc4c3OC(C)(c3ccc(Cl)cn3)O4)CC2)nc2cc(-c3nnc(C(F)(F)F)[nH]3)ncc21 (stereo partly drawn) [Compound 428a, 5-chloro-2-{4-[1-({3-[(2R)-2-methoxypropyl]-6-[5-(trifluoromethyl)-4H-1,2,4-triazol-3-yl]-3H-imidazo[4,5-c]pyridin-2-yl}methyl)piperidin-4-yl]-2-methyl-2H-1,3-benzodioxol-2-yl}pyridine]
0.0087 | Cc1nnc(-c2cc3nc(CN4CCC(c5cccc6c5O[C@@](C)(c5ccc(C#N)cc5F)O6)CC4)n(C[C@@H]4CCO4)c3cn2)[nH]1 [Compound 288a, 3-fluoro-4-[(2S)-2-methyl-4-(1-{[6-(5-methyl-4H-1,2,4-triazol-3-yl)-3-{[(2S)-oxetan-2-yl]methyl}-3H-imidazo[4,5-c]pyridin-2-yl]methyl}piperidin-4-yl)-2H-1,3-benzodioxol-2-yl]benzonitrile]
0.34 | Cc1nnc(-c2ccc3c(c2)nc(CN2CCC(c4cccc5c4OC(C)(c4ccc(Cl)cn4)O5)CC2)n3C[C@@H]2CCO2)[nH]1 (stereo partly drawn) [Compound 271a, 2-({4-[2-(5-chloropyridin-2-yl)-2-methyl-2H-1,3-benzodioxol-4-yl]piperidin-1-yl}methyl)-5-(5-methyl-4H-1,2,4-triazol-3-yl)-1-{[(2S)-oxetan-2-yl]methyl}-1H-1,3-benzodiazole]
2.3 | O=c1[nH]c(-c2cc3nc(CN4CCN(c5ccc(F)c(OCc6ccc(Cl)cc6F)c5)CC4)n(C[C@@H]4CCO4)c3cn2)no1 [Compound 439a, 3-{2-[(4-{3-[(4-chloro-2-fluorophenyl)methoxy]-4-fluorophenyl}piperazin-1-yl)methyl]-3-{[(2S)-oxetan-2-yl]methyl}-3H-imidazo[4,5-c]pyridin-6-yl}-4,5-dihydro-1,2,4-oxadiazol-5-one]
0.011 | C[C@]1(c2ccc(Cl)cc2F)Oc2cccc(C3CCN(Cc4nc5cc(-c6nnc(C#N)[nH]6)nnc5n4C[C@@H]4CCO4)CC3)c2O1 [Compound 448a, 5-[6-({4-[(2S)-2-(4-chloro-2-fluorophenyl)-2-methyl-2H-1,3-benzodioxol-4-yl]piperidin-1-yl}methyl)-7-{[(2S)-oxetan-2-yl]methyl}-7H-imidazo[4,5-c]pyridazin-3-yl]-4H-1,2,4-triazole-3-carbonitrile]
0.41 | C[C@]1(c2ccc(Cl)cc2F)Oc2cccc(C3CCN(Cc4nc5cc(-c6nnc(C(F)(F)F)[nH]6)nnc5n4C[C@H]4CCOC4)CC3)c2O1 [Compound 475a, 4-[(2S)-2-(4-chloro-2-fluorophenyl)-2-methyl-2H-1,3-benzodioxol-4-yl]-1-[(7-{[(3R)-oxolan-3-yl]methyl}-3-[5-(trifluoromethyl)-4H-1,2,4-triazol-3-yl]-7H-imidazo[4,5-c]pyridazin-6-yl)methyl]piperidine]
0.014 | C[C@]1(c2ccc(Cl)cc2F)Oc2cccc(C3CCN(Cc4nc5cc(-c6nnc(C(F)(F)F)[nH]6)nnc5n4C[C@@H]4CCO4)CC3)c2O1 [Compound 359a, 4-[(2S)-2-(4-chloro-2-fluorophenyl)-2-methyl-2H-1,3-benzodioxol-4-yl]-1-[(7-{[(2S)-oxetan-2-yl]methyl}-3-[5-(trifluoromethyl)-4H-1,2,4-triazol-3-yl]-7H-imidazo[4,5-c]pyridazin-6-yl)methyl]piperidine]
0.14 | Fc1cc(Cl)ccc1[C@H]1COc2cccc(C3CCN(Cc4nc5cc(-c6nnc(C(F)(F)F)[nH]6)nnc5n4C[C@@H]4CCO4)CC3)c2O1 [Compound 523a, 4-[(3S)-3-(4-chloro-2-fluorophenyl)-2,3-dihydro-1,4-benzodioxin-5-yl]-1-[(7-{[(2S)-oxetan-2-yl]methyl}-3-[5-(trifluoromethyl)-4H-1,2,4-triazol-3-yl]-7H-imidazo[4,5-c]pyridazin-6-yl)methyl]piperidine]
0.25 | C[C@]1(c2ccc(Cl)cc2F)Oc2cccc(C3CCN(Cc4nc5cc(-c6noc(=O)[nH]6)cnc5n4CC4(C#N)CC4)CC3)c2O1 [Compound 334a, 1-{[2-({4-[(2S)-2-(4-chloro-2-fluorophenyl)-2-methyl-2H-1,3-benzodioxol-4-yl]piperidin-1-yl}methyl)-6-(5-oxo-4,5-dihydro-1,2,4-oxadiazol-3-yl)-3H-imidazo[4,5-b]pyridin-3-yl]methyl}cyclopropane-1-carbonitrile]
0.056 | Fc1cc(Cl)ccc1COc1cccc(C2CCN(Cc3nc4cc(-c5nnn[nH]5)ccc4n3C[C@@H]3CCO3)CC2)n1 [Compound 125a, 2-[(4-{6-[(4-chloro-2-fluorophenyl)methoxy]pyridin-2-yl}piperidin-1-yl)methyl]-1-{[(2S)-oxetan-2-yl]methyl}-5-(1H-1,2,3,4-tetrazol-5-yl)-1H-1,3-benzodiazole]

The next lines start with the compound.

Structure (SMILES) | EC50 [nM]
CC(=O)Nc1ccc2c(c1)nc(CN1CC=C(c3cccc(OCc4ccc(Cl)cc4F)n3)CC1)n2C[C@@H]1CCO1 [Compound 135a, N-{2-[(4-{6-[(4-chloro-2-fluorophenyl)methoxy]pyridin-2-yl}-1,2,3,6-tetrahydropyridin-1-yl)methyl]-1-{[(2S)-oxetan-2-yl]methyl}-1H-1,3-benzodiazol-5-yl}acetamide] | 0.64
O=C(Nc1ccc2c(c1)nc(CN1CCC(c3cccc(OCc4ccc(Cl)cc4F)n3)CC1)n2C[C@@H]1CCO1)c1ccncc1 [Compound 171a, N-{2-[(4-{6-[(4-chloro-2-fluorophenyl)methoxy]pyridin-2-yl}piperidin-1-yl)methyl]-1-{[(2S)-oxetan-2-yl]methyl}-1H-1,3-benzodiazol-5-yl}pyridine-4-carboxamide] | 0.27
N#Cc1ccc(COc2nccc(C3CCN(Cc4nc5cc(-c6nnc(C(F)(F)F)[nH]6)ncc5n4C[C@@H]4CCO4)CC3)n2)c(F)c1 [Compound 507a, 3-fluoro-4-{[(4-{1-[(3-{[(2S)-oxetan-2-yl]methyl}-6-[5-(trifluoromethyl)-4H-1,2,4-triazol-3-yl]-3H-imidazo[4,5-c]pyridin-2-yl)methyl]piperidin-4-yl}pyrimidin-2-yl)oxy]methyl}benzonitrile] | 0.068
O=S1(=O)CCCN1c1ccc2c(c1)nc(CN1CCC(c3cccc(OCc4ccc(Cl)cc4F)n3)CC1)n2C[C@@H]1CCO1 [Compound 118a, (S)-2-(2-((4-(6-((4-chloro-2-fluorobenzyl)oxy)pyridin-2-yl)piperidin-1-yl)methyl)-1-(oxetan-2-ylmethyl)-1H-benzo[d]imidazol-5-yl)isothiazolidine 1,1-dioxide] | 10
O=C(Nc1ccc2c(c1)nc(CN1CCC(c3cccc(OCc4ccc(Cl)cc4F)n3)CC1)n2C[C@@H]1CCO1)[C@@H]1COC2(CCC2)C1 [Compound 201a, (7S)—N-{2-[(4-{6-[(4-chloro-2-fluorophenyl)methoxy]pyridin-2-yl}piperidin-1-yl)methyl]-1-{[(2S)-oxetan-2-yl]methyl}-1H-1,3-benzodiazol-5-yl}-5-oxaspiro[3.4]octane-7-carboxamide] | 3.1
Cc1cnccc1C(=O)Nc1ccc2c(c1)nc(CN1CCC(c3cccc(OCc4ccc(Cl)cc4F)n3)CC1)n2C[C@@H]1CCO1 [Compound 178a, N-{2-[(4-{6-[(4-chloro-2-fluorophenyl)methoxy]pyridin-2-yl}piperidin-1-yl)methyl]-1-{[(2S)-oxetan-2-yl]methyl}-1H-1,3-benzodiazol-5-yl}-3-methylpyridine-4-carboxamide] | 0.57
O=C(Nc1ccc2c(c1)nc(CN1CCC(c3cccc(OCc4ccc(Cl)cc4F)n3)CC1)n2C[C@@H]1CCO1)c1cccnc1 [Compound 168a, N-{2-[(4-{6-[(4-chloro-2-fluorophenyl)methoxy]pyridin-2-yl}piperidin-1-yl)methyl]-1-{[(2S)-oxetan-2-yl]methyl}-1H-1,3-benzodiazol-5-yl}pyridine-3-carboxamide] | 0.058
O=C(Nc1ccc2c(c1)nc(CN1CCC(c3cccc(OCc4ccc(Cl)cc4F)n3)CC1)n2C[C@@H]1CCO1)C1CCOCC1 [Compound 153a, N-{2-[(4-{6-[(4-chloro-2-fluorophenyl)methoxy]pyridin-2-yl}piperidin-1-yl)methyl]-1-{[(2S)-oxetan-2-yl]methyl}-1H-1,3-benzodiazol-5-yl}oxane-4-carboxamide] | 0.3
C[C@H]1CN(c2ccc(F)c(OCc3ccc(C#N)cc3F)c2)CCN1Cc1nc2cc(-c3nnc(C(F)(F)F)[nH]3)nnc2n1C[C@@H]1CCO1 [Compound 522a, 3-fluoro-4-({2-fluoro-5-[(3S)-3-methyl-4-[(7-{[(2S)-oxetan-2-yl]methyl}-3-[5-(trifluoromethyl)-4H-1,2,4-triazol-3-yl]-7H-imidazo[4,5-c]pyridazin-6-yl)methyl]piperazin-1-yl]phenoxy}methyl)benzonitrile] | 0.46
C[C@H]1CN(c2ccc(F)c(OCc3ccc(C#N)cc3F)c2)CCN1Cc1nc2cc(-c3nnc(C(F)(F)F)[nH]3)ncc2n1C[C@@H]1CCO1 [Compound 506a, 3-fluoro-4-({2-fluoro-5-[(3S)-3-methyl-4-[(3-{[(2S)-oxetan-2-yl]methyl}-6-[5-(trifluoromethyl)-4H-1,2,4-triazol-3-yl]-3H-imidazo[4,5-c]pyridin-2-yl)methyl]piperazin-1-yl]phenoxy}methyl)benzonitrile] | 0.076
